Laboratory results taken from US12560591B2, “Methods of treatment with CD8 T cell-mediated immune therapy” (Providence Health & Services—Oregon, priority 2019, dated 2026).

System: peripheral blood CXCR3^+CD45^+CD3^+CD4^− T cells
Assay: Clinical trial NCT02688712: peripheral blood CXCR3 flow cytometry, baseline vs day 15
Assay type: in vivo, human
Details: rectal cancer patients, after two weeks of LY2157299, majority of patients, FIG. 12C
Description: FIGS. 12A-12E are a series of panels showing TGFβ-mediated suppression of CXCR3-dependent CD8^+ T cell chemotaxis is relieved by LY2157299 in human patients with rectal cancer. […] FIG. 12B illustrates the clinical trial schema for a phase II clinical trial of rectal cancer patients and sample collection intervals. Patients receive two cycles of LY2157299 on days 1-14 and again on days 30-43 while receiving standard of care chemoradiation on days 15-57 prior to surgery. […] Patients are grouped by nodal status following neoadjuvant treatment (ypN). On the right, percent change in frequency of CXCR3^+CD3^+CD4^− T cells between days 1 and 15 is shown versus the neoadjuvant rectal (NAR) score. […] Each patient is shown (thin gray lines) along with the mean of all patients (thick black line). […] Error bars in each subpanel are standard deviations.
Clinical trial analysis: Patients enrolled in clinical trial NCT02688712 provided consent prior to tissue collection as designed and approved in PHS IRB #15-050. […] Pathological assessment for neoadjuvant treatment response was evaluated in the surgical resection specimen including excised lymph nodes. Neoadjuvant rectal (NAR) score was calculated by the published, validated formula (George et al, Curr. Colorectal Cancer Rep. 11: 275-280): [5*ypN−3(cT−ypT)+12]^2/9.61. […]

Structure (SMILES): Cc1cccc(-c2nn3c(c2-c2ccnc4ccc(C(N)=O)cc24)CCC3)n1 [LY2157299]
- peripheral blood CXCR3 expression, change day 0 to day 15: decrease in peripheral blood CXCR3 expression
